Source: patent US9271962B2 (NORTHEASTERN UNIVERSITY, priority 2008, dated 2016)
Like-named read-outs stand apart in the source and are kept apart here.

What was measured:
hMGL = biological target: T1, hMGL (Homo sapiens, UniProt Q99685); assay: Fluorescent enzyme assay, MGL (AHMMCE hydrolysis); type: biochemical; details: for inhibition at 1 µM: 1000 nM inhibitor; for inhibition at 0.01 µM: read-out: % Inhibition of Enzyme by inhibitor, MGL, 10 nM
T1 construct: A full-length cDNA clone of the human MGL transcript variant 1; made in house; host or cells: E. coli BL21 (DE3)
T1 sequence (Q99685 2-303 limits assumed): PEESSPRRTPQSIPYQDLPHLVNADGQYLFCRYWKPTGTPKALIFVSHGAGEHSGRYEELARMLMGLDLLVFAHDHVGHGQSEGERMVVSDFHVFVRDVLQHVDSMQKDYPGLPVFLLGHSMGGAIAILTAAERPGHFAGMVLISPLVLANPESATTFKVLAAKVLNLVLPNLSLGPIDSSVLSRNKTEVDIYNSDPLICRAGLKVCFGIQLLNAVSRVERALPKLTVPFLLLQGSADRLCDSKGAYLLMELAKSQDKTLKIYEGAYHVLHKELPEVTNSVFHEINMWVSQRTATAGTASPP
Procedure: (§1) Some analogs were tested for their FAAH/MGL inhibitory activity, which is expressed as % of inhibition (Tables 2, 3, and 4 below). The percentage of inhibition results from three-point assay (three concentrations of inhibitor are used) and it is less accurate (preliminary screening) than the IC50/Ki values that are determined from eight-point assay (eight different concentrations of inhibitor were used). The percentage of inhibition describes the percentage by which the inhibitor reduces the velocity/rate of AAMCA (arachidonoyl-7-amino-4-methylcoumarin amide) or AHMMCE (arachidonoyl-7-hydroxy-6-methoxy-4-methylcoumarin ester) hydrolysis by FAAH or MGL respectively. The IC50 is the concentration of the inhibitor, which results in 50% inhibition of the velocity/rate of AAMCA (arachidonoyl 7-amino-4-methylcoumarin amide) hydrolysis by FAAH or AHMMCE (Arachidonoyl, 7-hydroxy-6-methoxy-4-methylcoumarin ester) hydrolysis by MGL. The Ki value is the affinity constant and describes the ability of the compounds to inhibit the function of FAAH or MGL. The lower the IC50/Ki values, the higher the affinity of the inhibitor for the enzyme and the higher its inhibitory activity. A detailed description of the methods used to test inhibitory activity of compounds is given below.
A full-length cDNA clone of the human MGL transcript variant 1 (gi: 51242951) was obtained from OriGene Technologies (Rockville, Md.). The coding part of the MGL sequence (except the translation initiation codon ATG) was amplified by a polymerase chain reaction (PCR) using forward […] and reverse […] primers containing PmlI and SacI restriction enzyme recognition sites, respectively. iProof high-fidelity DNA polymerase (Bio-Rad, Hercules, Calif.) was used in the PCR amplification with 33 cycles, each consisting of denaturation at 94° C. for 10 s, annealing at 55° C. for 33 s, and extension at 72° C. for 1 min. The PCR product and pET45b vector were digested with PmlI and SacI restriction enzymes, and the vector was dephosphorylated with CIP followed by in-gel purification using the MinElute Gel Extraction Kit (Qiagen Corp., Valencia, Calif.). The fragment was inserted into the vector directly downstream after the 6 histidine and valine codons, generating the construct pET45His6hMGL for expression of hMGL containing an N-terminal His6-tag. GC10 E. coli cells were used for DNA transformation and plasmid propagation. Mini- and midi-scale plasmid DNA preparations were performed using a GenElute Plasmid Miniprep Kit (Sigma) and PureYield Plasmid Midiprep System (Promega, Madison, Wis.), respectively. In-frame vector-fragment junctions and the coding sequence of the recombinant gene were confirmed by sequencing. The pET45His6hMGL construct was transformed into BL21 (DE3) and Origami (DE3) E. coli expression strains (Novagen, Madison, Wis.).
A single E. coli BL21 (DE3) colony containing the pET45His6hMGL plasmid was inoculated into 12 mL of Luria broth-ampicillin medium and grown overnight with shaking (250 rpm) at 37° C. The next morning, 10 mL of this culture was inoculated into 1 L of fresh Luria broth-ampicillin and allowed to grow until culture turbidity reached an (OD)600 of 0.6-0.8, at which time expression from the T7 promoter was induced by adding isopropyl-β-D-thio-galactopyranoside (1 mM). After 5 h induction, the cells were harvested by centrifugation at 5,000 g for 10 min at 4° C., washed with PBS, and held at −80° C. Five grams (wet-weight) of cells were resuspended in 50 mL lysis buffer (100 mM NaCl; 50 mM Tris, pH 8.0) supplemented with Triton X-100 (0.5%), lysozyme (0.2 mg/mL), and DNase I (25 μg/ml) and disrupted on ice by three, one-min sonication cycles, each consisting of 1-sec sonication bursts at 50 W power separated from each other by a 2-sec interval (Vibra-Cell 500 W, Sonics, Newtown, Conn.). The cell lysate was centrifuged at 10,000 g for 30 min at 4° C. […]

ΔTM rFAAH = biological target: T2, ΔTM rFAAH (Rattus norvegicus, UniProt P97612); assay: Fluorescent enzyme assay, FAAH (AAMCA hydrolysis); type: biochemical; details: for inhibition at 1 µM: 1000 nM inhibitor; for inhibition at 1 µM / inhibition at 0.01 µM: screening assay; for inhibition at 0.01 µM: 10 nM inhibitor
T2 construct: 15 ug of ΔTM rFAAH (cell lysate obtained by recombinant procedure); made in house
T2 sequence (P97612 30-579 limits assumed): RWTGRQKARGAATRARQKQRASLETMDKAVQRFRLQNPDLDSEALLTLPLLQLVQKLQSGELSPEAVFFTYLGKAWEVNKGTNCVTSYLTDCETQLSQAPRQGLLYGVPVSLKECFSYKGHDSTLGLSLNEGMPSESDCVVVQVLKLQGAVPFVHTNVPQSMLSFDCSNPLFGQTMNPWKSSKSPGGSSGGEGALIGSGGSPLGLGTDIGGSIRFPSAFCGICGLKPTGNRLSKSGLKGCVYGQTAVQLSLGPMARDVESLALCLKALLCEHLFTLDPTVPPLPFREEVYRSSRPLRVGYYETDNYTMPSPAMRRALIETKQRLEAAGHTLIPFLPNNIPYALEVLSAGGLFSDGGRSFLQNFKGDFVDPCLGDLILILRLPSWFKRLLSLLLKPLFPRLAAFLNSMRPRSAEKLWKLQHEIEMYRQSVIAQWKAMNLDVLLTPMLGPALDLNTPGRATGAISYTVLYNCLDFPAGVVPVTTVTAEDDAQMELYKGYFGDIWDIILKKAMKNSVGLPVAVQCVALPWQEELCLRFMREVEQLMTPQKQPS
Procedure: as §1
The enzyme (FAAH and MGL) assays were performed in 96 well plates (Coster #3650) in a total volume of 200 uL. Fluorogenic substrate AAMCA (arachidonoyl 7-amino-4-methylcoumarin amide) for FAAH and AHMMCE (arachidonoyl 7-hydroxy-6-methoxy-4-methylcoumarin ester) for MGL were used using BioTek Synergy HT Microplate Reader. Compounds and substrates were dissolved in DMSO provide a 10 mM stock solution and kept as a stock solution at −20° C. until used for assay. Stock solutions were thawed and reconstituted in 50:50 DMSO/assay buffer to a final DMSO concentration per well below 8%. This ensures that the compounds and substrate are in solution during assay. […] Appropriate substrate was added to adjust the final concentration in each well to 20 uM for FAAH (2× Km) and 10 uM for MGL (1×KM). Fluorescence readings were performed at λex=360/λem=460 for 4 h using Kinetic assay protocol at every 20 min (the fluorescent product coumarin produced is quantitated by this procedure). The readings at 3 h for FAAH and 2 h for MGL (linear maximum hydrolysis kinetics of enzyme on substrate) were used to calculate percent inhibition based on controls. Compounds which had more than 50 percent inhibition at 10 uM were selected for dose response study to determine IC50 values. The dose response at 8 concentration points was performed as with the screening assay except that compounds were serially diluted to 8 concentration points which were chosen based on IC50 value, which were calculated from the screening assay results. Assays are run twice in triplicates and Graphpad Prism software is used to plot inhibition data to obtain IC50 values.

[1] = tested on: rats (KA-induced seizures); assay: KA-induced seizures in rats, seizure scoring for 4 h; type: in vivo; details: 5 mg/kg injected immediately after 10 mg/kg KA; 4-h rating period
Procedure: These compounds were tested in vivo. Seizures were initiated in rats by injection with 10 mg/kg of KA (insult).

[2] = AHMMCE substrate, screening assay
[3] = 10 nM inhibitor, AHMMCE substrate, screening assay
[4] = 100 uM inhibitor, printed in the 1000 nM column

| inhibition at 1 µM (hMGL; [2]) [%] | inhibition at 1 µM (ΔTM rFAAH; AAMCA substrate) [%] | inhibition at 0.01 µM (ΔTM rFAAH; AAMCA substrate) [%] | inhibition at 0.01 µM (hMGL; [3]) [%] | Compound | other results |
| --- | --- | --- | --- | --- | --- |
| 35 | 90 |  |  | C#CCc1nnnn1C(=O)N(C)C [Compound 2, N,N-dimethyl-5-prop-2-yn-1-yl-1H-tetrazole-1-carboxamide] | KA-induced seizure severity [1]: reduce KA-induced seizure severity |
| 15 | 90 | 12 |  | CN(CCCCCl)C(=O)n1cnc(-c2ccccc2)c1 [Compound 47, N-(4-chlorobutyl)-N-methyl-4-phenyl-1H-imidazole-1-carboxamide] | IC50 (ΔTM rFAAH; eight-point dose response, AAMCA substrate): 0.078 µM |
| 87 | 87 |  |  | CN(C)C(=O)n1cnc2cncnc21 [Compound 61, N,N-dimethyl-9H-purine-9-carboxamide] |  |
|  |  | 94 | 88 | O=C(N1CCOCC1)n1nnc(Cc2ccc(Cl)cc2Cl)n1 [Compound 6, 4-{[5-(2,4-dichlorobenzyl)-tetrazol-2-yl]carbonyl}morpholine] |  |
| 99 | 100 |  |  | CC(=O)Nc1ccc(Cc2nnn(C(=O)N(C)C)n2)cc1 [Compound 25a] |  |
|  |  |  |  | CN(C)C(=O)n1nnc(Cc2cccc3ccccc23)n1 [Compound 50, N,N-dimethyl-5-(naphthalen-1-ylmethyl)-2H-tetrazole-2-carboxamide] | inhibition at 100 µM (hMGL; [4]): 42%; inhibition at 100 µM (ΔTM rFAAH; [4]): 85% |
|  |  | 91 | 76 | CN(C)C(=O)n1nnnc1Cc1ccc(OC(F)(F)F)cc1 [Compound 19b] |  |
| 21 | 9 |  |  | O=C(N(c1ccccc1)c1ccccc1)n1nnnc1Cc1ccc(Cl)cc1Cl [Compound 8b] |  |
| 96 | 100 |  |  | COc1ccc(Cc2nnnn2C(=O)N(C)C)cc1 [Compound 24b] |  |
| 86 | 96 |  |  | CN(C)C(=O)n1cnc2ncncc21 [Compound 60, N,N-dimethyl-7H-purine-7-carboxamide] |  |
|  |  | 93 | 96 | Cc1ccc(Cc2nnn(C(=O)N(C)C)n2)cc1 [Compound 26a, N,N-dimethyl-5-(4-methylbenzyl)-2H-tetrazole-2-carboxamide] |  |
| 11 | 94 |  |  | CC(C)N(C(=O)n1nnc(Cc2ccc(Cl)cc2Cl)n1)C(C)C [Compound 10, 5-(2,4-dichlorobenzyl)-N,N-diisopropyl-tetrazole-2-carboxamide] |  |
|  |  | 93 | 54 | CN(C)C(=O)n1nnnc1Cc1ccc(Cl)cc1 [Compound 21b] |  |
|  |  | 92 | 97 | CN(C)C(=O)n1nnc(Cc2ccc(I)cc2)n1 [Compound 18a, 5-(4-iodobenzyl)-N,N-dimethyl-2H-tetrazole-2-carboxamide] |  |
|  |  | 93 | 99 | CN(C)C(=O)n1nnc(Cc2ccc(Cl)cc2Cl)n1 [Compound 17a, 5-(2,4-dichlorobenzyl)-N,N-dimethyl-2H-tetrazole-2-carboxamide] |  |
|  |  | 91 | 98 | CSc1ccc(Cc2nnn(C(=O)N(C)C)n2)cc1 [Compound 23a] |  |
|  |  | 92 | 97 | CN(C)C(=O)n1nnc(Cc2ccc([N+](=O)[O-])cc2)n1 [Compound 22a, N,N-dimethyl-5-(4-nitrobenzyl)-2H-tetrazole-2-carboxamide] |  |

| Compound | inhibition at 1 µM (hMGL; [2]) [%] | inhibition at 1 µM (ΔTM rFAAH; AAMCA substrate) [%] | inhibition at 0.01 µM (ΔTM rFAAH; AAMCA substrate) [%] | inhibition at 0.01 µM (hMGL; [3]) [%] | other results |
| --- | --- | --- | --- | --- | --- |
| CN(C)C(=O)n1cc(Cc2ccccc2)nn1 [Compound 70, 4-benzyl-N,N-dimethyl-1,2,3-triazole-1-carboxamide] | 99 | 98 |  |  |  |
| CN(C)C(=O)Oc1ccc(Cc2nnn(C(=O)N(C)C)n2)cc1 [Compound 36a, 4((2-(dimethylcarbamoyl)-2H-tetrazol-5-yl)methyl)phenyl dimethylcarbamate] |  |  | 80 |  | inhibition at 0.01 µM (hMGL): 92% |
